Results on one compound are retold here after paper PMC4474554 (PLoS ONE, 2015).

Where “and” joins values, the source holds several entries; their conditions need not be identical. Identical values can stand only once. Like-named read-outs stand apart in the source and are kept apart here.

The test system of assay [1] is phospho-EGFR and phospho-AKT. Description: Western blotting, EGFR and AKT phosphorylation in transfected HEK-293T. The class given is cell-based. Particulars: HEK-293T cell with the mutant EGFR (L858R). The procedure: Next, they were washed out with cold PBS and lysed in 1 × cell lysis buffer [20 mM Tris-HCl (pH 7.5), 150 mM NaCl, 1 mM Na2EDTA, 1 mM EGTA, 1% Triton, 2.5 mM sodium pyrophosphate, 1 mM beta-glycerophosphate, 1 mM Na3VO4, 1 μg/ml leupeptin] (Cell signaling Technology) supplemented with Complete, Mini (Roche, Basel, Switzerland) to extract protein. After the protein concentration was measured, equal amounts of total protein (30 μg) were separated by SDS-PAGE and transferred to PVDF membranes. The proteins on membranes were incubated overnight at 4°C with the primary antibodies. The following secondary antibodies were used: goat antirabbit or antimouse IgG-conjugated horseradish peroxidase (HRP) (Santa Cruz Biotechnology, Santa Cruz, CA). To detect specific signals, the membranes were incubated by ECL plus Western Blotting Detection Reagents (Amersham Biosciences UK Limited, Buckinghamshire, UK).
For orientation: In western blotting, separated proteins are transferred to a membrane and probed.

The next assay has as its system HCC827. The class given is cell-based. The procedure:
Drug sensitivity was determined by a modified MTS assay with CellTiter 96 AQueous One Solution Reagent (Promega, Madison, WI). Cells were generally seeded on 96-well plates at a density that would yield 80% confluence by the completion of the experiment, varying by each cell line from 3000 to 4000 per well. […] After that, MTS dye was added to each well. The cultures were incubated for another 1 hour at 37°C in a humidified atmosphere with 5% CO2. Optical densities of samples were measured at 490 nm using Immuno Mini NJ-2300 (Nalge Nunc International KK, Rochester, NY). Mean optical density at each drug concentration was calculated after discarding the highest and lowest values. […] IC50 values were expressed as mean and standard deviations. The assays were repeated until the standard deviation became less than the mean.

The next assay relates to NCI-H1648. Description: MTS assay, NCI-H1648. In general terms: Tetrazolium dyes change colour on reduction, which living cells bring about.
In another assay the test system is NCI-H1993. Nature of the assay: MTS assay, NCI-H1993.
The test system of another assay is FGFR-3 (K650E). More on the design: method as in earlier work. Conditions: updated data; cited from earlier work.

Regarding `CNC(=O)c1ccccc1Nc1nc(Nc2ccc(N3CCOCC3)cc2OC)ncc1Cl` [TAE226], in assay [1], the “phosphorylations of EGFR and AKT” value is “inhibited”. In addition, the half-inhibitory concentration (IC50) in the assay on HCC827 (HCC827, EGFR Exon 19 del (E746-A750), MTS, TAE226 48 hours, gefitinib 72 hours, read-out: IC50 (μM) (mean ± SD)) was 0.086 ± 0.01 µM; in the assay with HCC827 (HCC827, independent MTS assays, read-out: each IC50), 0.061 µM and 0.095 µM and 0.09 µM and 0.1 µM; with NCI-H1648 (read-out: IC50 (μM) (mean ± SD), NCI-H1648, HER2 amplification, MTS, TAE226 48 hours, gefitinib 72 hours) it was 1.7 ± 0.07 µM; with NCI-H1648 (read-out: each IC50, NCI-H1648, independent MTS assays), 1.7 µM and 1.8 µM; with NCI-H1648 (read-out: mean IC50, NCI-H1648, mean of independent MTS assays) it was 1.7 µM; in the assay with NCI-H1993 (read-out: IC50 (μM) (mean ± SD), NCI-H1993, MET amplification, MTS, TAE226 48 hours, gefitinib 72 hours), 0.89 ± 0.001 µM. Besides, the half-maximal inhibitory concentration (IC50) with NCI-H1993 (read-out: each IC50, NCI-H1993, independent MTS assays) is 0.89 µM; in the assay with NCI-H1993 (read-out: mean IC50, NCI-H1993, mean of independent MTS assays), 0.89 µM; in the assay with FGFR-3 (K650E), […].

As usually defined, the IC50 is the concentration at which inhibition is half-maximal.
